Test results as given in US20150056195A1, “COMPOSITIONS AND METHODS FOR INIHIBITING TUMORIGENICITY OF SENESCENT CANCER CELLS INDUCED BY CHEMOTHERAPY” (INSERM (INSTITUT NATIONAL DE LA SANTE ET DE LA RECHERCHE …, priority 2013, published 2015).

Experiments:
501mel melanoma cells [1] = test: Xenograft tumor model in athymic nude mice; format: in vivo; conditions: cells exposed in vitro 48 hrs or transfected, then 4x10^6 cells/mouse subcutaneously
Method: Mice were randomly divided into 3 groups of 6 mice. 501mel melanoma cells were transfected with control (siC) or STAT3 (siSTAT3) siRNA and were exposed in vitro to the secretome of senescent melanoma cells (SSMC) or to recombinant CCL2 (200 ng/ml) or IL6 (20 ng/ml) for 48 hrs, washed twice with phosphate-buffered saline and then inoculated subcutaneously (4×10^6 cells/mouse) into 6-week-old female immune-deficient Athymic Nude FOXN1^nu mice (Harlan Laboratory). The growth tumor curves were determined by measuring the tumor volume using the equation V=(L×W2)/2. Mice were killed by CO2 inhalation and tumors were taken.

501mel cells [2] = test: CFSE labeling, number of cell divisions by FACS; format: cell-based, human; conditions: IL6 20 ng/ml, 72 hrs; control 5.65
Method: For the in vitro CFSE assay, cells were labeled with 2 μmol/l of CFSE according to the manufacturer's protocol (Invitrogen), then plated and treated with the secretome of control (SCMC) or senescent melanoma cells (SSMC) or recombinant IL6 (20 ng/ml). Cells were detached and analyzed by flow cytometry using MACSQuant (Miltenyi biotech). Cells were exposed to control (Cont) or senescent secretome (SSMC). Seventy-two hours later, cells were detached in phosphate-buffered saline/EDTA 2 mM and stained with DAPI to exclude dead cells. Fluorescence was measured by using the FL1/FL2 channels of a MACSQuant. Data were analyzed with MACSQuant software (Miltenyi biotech).

501mel melanoma cells [3] = test: qRT-PCR of mesenchymal, stemness and MITF transcripts; format: cell-based, human; conditions: IL6 20 ng/ml, mRNA and protein levels
Method: mRNA isolation was performed with Trizol (Invitrogen), according to standard procedure. QRT-PCR was carried out with SYBR® Green I and Multiscribe Reverse Transcriptase (Promega) and monitored by an ABI Prism 7900 Sequence Detection System (Applied Biosystems, Foster City, Calif.). Detection of SB34 gene was used to normalize the results. Primer sequences for each cDNA were designed using either Primer Express Software (Applied Biosystems) or qPrimer depot (http://primerdepot.nci.nih.gov) and are available upon request.

STAT3 = test: Western blot of STAT3, ERK and AKT signaling; format: cell-based, human; conditions: 501mel; for AKT and ERK phosphorylation / STAT3 activation (tyr705-phosphorylation): IL6 20 ng/ml or CCL2 200 ng/ml; for STAT3 activation (tyr705-phosphorylation): time course
Method: (§1) Western blots were carried out as previously described^48. Briefly, cell lysates (30 μg) were separated by SDS-PAGE, transferred on to a PVDF membrane and then exposed to the appropriate primary and HRP-linked secondary antibodies. Proteins were visualized with the ECL system (Amersham). The western blots shown are representative of at least 3 independent experiments.

501mel cells [4] = test: Flow cytometry of MITF content (low-MITF population); format: cell-based, human; conditions: IL6 20 ng/ml, 48 hrs; control 2
melanoma cell lines [5] = test: Western blot of MITF, ECAD, FN1, NANOG, OCT4; format: cell-based, human; conditions: three melanoma cell lines exposed 48 hrs to secretome of cells rendered senescent by the drug (temozolomide 900 nM, fotemustine 40 nM)
Method: as §1

melanoma cell lines [6] = test: Cell counting and cell death; format: cell-based, human; conditions: 501mel and other melanoma cells

“IL6: recombinant human IL6 from R&D Systems, used at 20 ng/ml” was tested, and the “tumor formation of xenografted 501mel cells” value (501mel melanoma cells [1]) was “gave rise to tumors”, the “percentage of cells that underwent 0/1 division” value (501mel cells [2]) was 18.3% and the “NANOG and OCT4 expression” value (501mel melanoma cells [3]) was “enhanced”. The “amount of MITF” value (501mel melanoma cells [3]) was “reduced”, the “time to rapid and robust STAT3 phosphorylation” value (STAT3; IL6 20 ng/ml) was no more than 5 min and the “AKT and ERK phosphorylation” value (STAT3) was “no or very weak stimulation”. The “STAT3 activation (tyr705-phosphorylation)” value (STAT3) was “dramatic increase” and the low-MITF population (501mel cells [4]) was 7%.

For `CCOP(=O)(OCC)C(C)NC(=O)N(CCCl)N=O` (stereo not drawn) [fotemustine], the “E-Cadherin and MITF protein level” value (melanoma cell lines [5]) was “decrease” and the “expression of Fibronectin1” value (melanoma cell lines [5]) was “increased expression”.

With `CN[C@@H]1C[C@H]2O[C@@](C)([C@@H]1OC)n1c3ccccc3c3c4c(c5c6ccccc6n2c5c31)C(=O)NC4` [staurosporine] the cell death (melanoma cell lines [6]) was “positive control”.

With “CCL2: recombinant human CCL2 from R&D Systems, used at 200 ng/ml” the “tumor formation of xenografted 501mel cells” value (501mel melanoma cells [1]) was “gave rise to tumors”, the “time of maximum STAT3 phosphorylation” value (STAT3; CCL2 200 ng/ml) was 60 min and the “AKT and ERK phosphorylation” value (STAT3) was “no or very weak stimulation”. For the same compound, the “STAT3 activation (tyr705-phosphorylation)” value (STAT3) was “dramatic increase”.
